# Data published in the supplement of paper PMC8967900.
# Experiments:
# Assay in all cases: selective drug sensitivity score (sDSS, relative to normal bone marrow) (sDSS (score)); higher = more potent and effective on the cell line relative to normal bone marrow cells
# Details in all cases: 72 h
# KASUMI-10 = tested on: KASUMI-10
# NALM-6 = tested on: NALM-6
# RPMI-8402 = tested on: RPMI-8402
# REH = tested on: REH
# COG-LL-332h = tested on: COG-LL-332h
# HPB-ALL = tested on: HPB-ALL
# DND-41 = tested on: DND-41
# CCRF-CEM = tested on: CCRF-CEM
# LC4-1 = tested on: LC4-1
# COG-LL-355h = tested on: COG-LL-355h
# P30-OHKUBO = tested on: P30-OHKUBO
# PF-382 = tested on: PF-382
# KASUMI-2 = tested on: KASUMI-2
# SUP-B15 = tested on: SUP-B15
# SEM cells = tested on: SEM cells
# ALL-SIL = tested on: ALL-SIL
# MHH-CALL-3 = tested on: MHH-CALL-3
# RCH-ACV = tested on: RCH-ACV
# NALM-16 = tested on: NALM-16
# NALL-1 = tested on: NALL-1
# 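Further: ALL cell lines in 384-well plates, five doses spanning 10,000-fold, each plate scaled between vehicle and 100 µmol/L benzalkonium chloride controls, sDSS an adapted area-under-curve metric.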
smiles,measurement,setting,value
CNC(=O)[C@@H](NC(=O)[C@H](CC(C)C)[C@H](O)C(=O)NO)C(C)(C)C [Marimastat] (top concentration 10000 nM),selective drug sensitivity score,KASUMI-10,0.22
same,selective drug sensitivity score,NALM-6,-1.28
same,selective drug sensitivity score,RPMI-8402,-0.68
same,selective drug sensitivity score,REH,-1.28
same,selective drug sensitivity score,COG-LL-332h,-0.18
same,selective drug sensitivity score,HPB-ALL,-1.08
same,selective drug sensitivity score,DND-41,0.12
same,selective drug sensitivity score,CCRF-CEM,-0.48
same,selective drug sensitivity score,LC4-1,-1.28
same,selective drug sensitivity score,COG-LL-355h,-1.28
same,selective drug sensitivity score,P30-OHKUBO,-0.18
same,selective drug sensitivity score,PF-382,-0.68
same,selective drug sensitivity score,KASUMI-2,-0.98
same,selective drug sensitivity score,SUP-B15,4.52
same,selective drug sensitivity score,SEM cells,-1.08
same,selective drug sensitivity score,ALL-SIL,-1.28
same,selective drug sensitivity score,MHH-CALL-3,-1.28
same,selective drug sensitivity score,RCH-ACV,2.02
same,selective drug sensitivity score,NALM-16,4.22
same,selective drug sensitivity score,NALL-1,4.12
